This note sets out measurements from patent publication US5446207A, “Anti-dyslipidemic agents” (Harbor Branch Oceanographic Institution, Inc., priority 1993, dated 1995).

The target in the assay is T1, recombinant CETP (rCETP) (Homo sapiens, UniProt P11597).
T1 sequence (P11597 18-493): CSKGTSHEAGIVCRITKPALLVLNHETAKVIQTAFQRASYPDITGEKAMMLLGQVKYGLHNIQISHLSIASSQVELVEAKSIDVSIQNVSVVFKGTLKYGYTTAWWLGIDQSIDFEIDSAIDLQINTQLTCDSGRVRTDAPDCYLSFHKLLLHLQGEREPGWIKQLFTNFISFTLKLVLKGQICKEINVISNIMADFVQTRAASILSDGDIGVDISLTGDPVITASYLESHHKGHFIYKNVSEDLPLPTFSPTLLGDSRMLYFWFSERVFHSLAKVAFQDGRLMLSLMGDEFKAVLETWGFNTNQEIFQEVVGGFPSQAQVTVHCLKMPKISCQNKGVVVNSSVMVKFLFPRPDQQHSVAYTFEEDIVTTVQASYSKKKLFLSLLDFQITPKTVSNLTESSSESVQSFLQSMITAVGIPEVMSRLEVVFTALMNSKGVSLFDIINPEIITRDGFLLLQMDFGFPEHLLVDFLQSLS
The assay is described as follows: CETP scintillation proximity assay (transfer of [3H]cholesteryl esters from HDL to biotinylated LDL). As to conditions: for IC50: rCETP, 37° C., 4 hours, SPA, read-out: IC50 (inhibition of CETP transfer activity); for activity in the cholesteryl ester transfer protein (CETP) assay: statement in words. The class given is biochemical. Here is the method:
This assay used a commercially available CETP Scintillation Proximity Assay kit (Amersham TRKQ7015). In this assay, the transfer of [^3 H]cholesteryl esters from high density lipoprotein (HDL) to biotinylated low density lipoproteins (LDL) was measured following incubation of donor and acceptor particles in the presence of recombinant CETP (rCETP; see Wang S. et al J. Biol. Chem. (1992) 267:1746-17490 which is herein incorporated by reference). Following incubation, the reaction was terminated and transfer was measured in a single step addition of streptavidin SPA beads, formulated in an assay terminal buffer (Amersham). The rate of increase in signal was proportional to the transfer of [^3 H]cholesteryl ester by CETP.
To 96-well microtiter plates ([…] Microlite) was pipetted 5 μl of sample (or buffer for blank) of appropriate dilution. […] As a control, 5 μl of CETP monoclonal antibody TP-1, 1:10 dilution from ascites was added. The reaction was started by adding 45 μl of the following mixtures to each well.
20 μl of assay buffer (from kit)
10 μl ^3 H]Cholesteryl ester-HDL (from kit)
10 μl of biotinylated LDL (from kit)
The contents of the plate were mixed briefly by tapping the plate gently and then the plate was sealed with parafiim to prevent evaporation during the incubation. The plates were incubated at 37° C. for 4 hours. After incubation the reaction was stopped by adding 200 μl of streptavidin beads to each well. The beads were shaken gently before addition. The mixture was incubated at room temperature for 30 minutes to allow the assay to come to equilibrium with beads. Dpm were counted on a TopCount (Packard Instrument Company, Downers Grove, Ill.) (A conventional scintillation counter with window settings fully open may also be used).
In general terms: In a scintillation proximity assay essentially only radioactivity close to the scintillant gives light.

Molecules are shown by their SMILES.

For `COc1ccc(O)c(O)c1/C=C1\[C@@H](C)CC[C@H]2C(C)(C)CCC[C@]12C` (relative stereo) [Compound B, wiedendioI-B], the IC50 (in general, the concentration at which inhibition is half-maximal) is 2900 nM and the “activity in the cholesteryl ester transfer protein (CETP) assay” value is given as “active”.
For the compound `COc1ccc(O)c(O)c1CC1=C(C)CC[C@H]2C(C)(C)CCC[C@]12C` (relative stereo) [Compound A, wiedendioI-A], the IC50 was 2000 nM and the “activity in the cholesteryl ester transfer protein (CETP) assay” value was “active”.
